Like-named read-outs stand apart in the source and are kept apart here. Starred links: 1 amine or outer side, 2 acyl side, 3 side chain; linkers in the order of their positions; H or OH if unused. Non-standard residues stand in square brackets, D forms with d. Groups on a side chain read outwards from the residue. *: point of attachment. C20 diacid = O=C(O)CCCCCCCCCCCCCCCCCCC(=O)*; C18 diacid = O=C(O)CCCCCCCCCCCCCCCCC(=O)*; γGlu = O=C(O)[C@H](CCC(=O)[*:2])N[*:1]; αMeL = CC(C)C[C@](C)(N)C(=O)O; Orn = NCCC[C@H](N)C(=O)O; Dap = NC[C@H](N)C(=O)O; AEEA = NCCOCCOCC(=O)O; Aib = CC(C)(N)C(=O)O
Experiments:
Format in all cases: cell-based
hGIPR [1] = target: T1, hGIPR (Homo sapiens, UniProt P48546); experiment: Functional cAMP activity in the presence of 1% HSA
T1 sequence (P48546 22-466): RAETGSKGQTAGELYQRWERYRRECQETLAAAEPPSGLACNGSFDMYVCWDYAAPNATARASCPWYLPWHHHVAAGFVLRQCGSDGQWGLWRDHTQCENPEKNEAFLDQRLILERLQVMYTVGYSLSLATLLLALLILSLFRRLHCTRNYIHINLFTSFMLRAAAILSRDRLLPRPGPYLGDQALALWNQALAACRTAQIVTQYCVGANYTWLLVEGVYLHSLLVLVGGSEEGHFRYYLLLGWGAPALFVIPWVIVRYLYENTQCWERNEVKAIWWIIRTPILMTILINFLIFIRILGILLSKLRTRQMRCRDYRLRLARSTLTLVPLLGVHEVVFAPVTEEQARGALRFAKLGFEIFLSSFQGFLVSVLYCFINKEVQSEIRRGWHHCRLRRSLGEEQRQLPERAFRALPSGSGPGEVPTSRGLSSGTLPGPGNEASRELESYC

hGLP-1R [2] = target: T2, hGLP-1R (Homo sapiens, UniProt P43220); experiment: Functional cAMP activity in the presence of 1% HSA
T2 sequence (P43220 24-463): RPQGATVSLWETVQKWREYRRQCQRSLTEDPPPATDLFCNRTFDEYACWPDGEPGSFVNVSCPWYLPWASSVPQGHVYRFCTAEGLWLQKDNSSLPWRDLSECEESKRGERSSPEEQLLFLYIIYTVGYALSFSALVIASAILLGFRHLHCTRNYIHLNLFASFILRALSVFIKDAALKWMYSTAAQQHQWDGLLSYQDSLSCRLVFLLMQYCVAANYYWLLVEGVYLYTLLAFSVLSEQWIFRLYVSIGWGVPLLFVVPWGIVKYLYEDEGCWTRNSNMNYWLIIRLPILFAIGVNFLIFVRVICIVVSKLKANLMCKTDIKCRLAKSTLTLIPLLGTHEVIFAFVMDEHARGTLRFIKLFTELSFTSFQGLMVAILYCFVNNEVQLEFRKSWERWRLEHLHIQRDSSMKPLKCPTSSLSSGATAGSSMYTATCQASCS

human GcgR = human GcgR (Homo sapiens, UniProt P47871); experiment: Functional cAMP activity in the presence of 1% HSA
Sequence of human GcgR (P47871 26-477): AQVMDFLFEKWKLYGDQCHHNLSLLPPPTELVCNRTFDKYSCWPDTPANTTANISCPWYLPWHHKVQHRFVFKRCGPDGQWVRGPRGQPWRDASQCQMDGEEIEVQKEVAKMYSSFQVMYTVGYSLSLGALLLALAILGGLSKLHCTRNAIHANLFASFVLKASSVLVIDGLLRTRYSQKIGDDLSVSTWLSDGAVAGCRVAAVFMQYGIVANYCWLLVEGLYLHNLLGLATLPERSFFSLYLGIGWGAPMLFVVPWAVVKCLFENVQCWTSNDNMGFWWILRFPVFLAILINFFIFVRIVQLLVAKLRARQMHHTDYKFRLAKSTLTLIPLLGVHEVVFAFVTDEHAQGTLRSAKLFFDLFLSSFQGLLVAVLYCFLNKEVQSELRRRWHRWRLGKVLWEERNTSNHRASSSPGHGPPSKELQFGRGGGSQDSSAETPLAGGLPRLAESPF

hGIPR [3] = target: T1, hGIPR; experiment: Functional cAMP activation in the presence of 0.1% casein (no HSA);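 on Relative cAMP EC50, hGIPR: intracellular cAMP rise after 30 min at 37 °C read by HTRF against a standard curve, scaled between buffer alone (0%) and top control ligand concentration (100%), four-parameter fit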;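 on Relative cAMP EC50, hGLP-1R: intracellular cAMP rise after 30 min at 37 °C read by HTRF, normalized between buffer only (0%) and maximal control ligand (100%), four-parameter variable-slope fit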;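 on Relative cAMP EC50, hGcgR: intracellular cAMP rise after 30 min at 37 °C, read by HTRF against a cAMP standard curve, scaled from buffer only (0%) to maximal control ligand response (100%)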
hGLP-1R [4] = target: T2, hGLP-1R; experiment: as above
Protocol: After a 30-minute incubation at 37° C., the resulting increase in intracellular cAMP is quantitatively determined using the CisBio CAMP Dynamic 2 HTRF Assay Kit (62AM4PEJ). Briefly, cAMP levels within the cell are detected by adding the cAMP-d2 conjugate in cell lysis buffer followed by the antibody anti-cAMP-Eu^3+-Cryptate, also in cell lysis buffer.
Intracellular cAMP levels are determined by extrapolation using a standard curve. Dose response curves of compounds are plotted as the percentage of stimulation normalized to minimum (buffer only) and maximum (maximum concentration of each control ligand) values and analyzed using a four parameter non-linear regression fit with a variable slope (Genedata Screener 13). EC50 is the concentration of compound causing half-maximal simulation in a dose response curve. Each relative EC50 value for the Geometric mean calculation is determined from a curve fitting.

hGcgR = hGcgR (Homo sapiens, UniProt P47871); experiment: as above;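 further: intracellular cAMP rise after 30 min at 37 °C, read by HTRF against a cAMP standard curve, scaled from buffer only (0%) to maximal control ligand response (100%)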
Sequence of hGcgR (P47871 26-477): as above

human GLP1-R = human GLP1-R (Homo sapiens, UniProt P43220); experiment: GLP1-R internalization assay in HEK293 cells; settings: for Internalization % TOP: normalized to maximum concentration of GLP-1 (100%)
Sequence of human GLP1-R (P43220 24-463): as the sequence (P43220 24-463) above

[5] = read-out: cAMP Rel EC50, hGLP-1R
[6] = in the presence of 0.1% casein (no HSA), geometric mean, read-out: Relative cAMP EC50, hGIPR
[7] = in the presence of 0.1% casein (no HSA), geometric mean, read-out: Relative cAMP EC50, hGLP-1R
[8] = in the presence of 0.1% casein (no HSA), geometric mean, read-out: Relative cAMP EC50, hGcgR
[9] = HEK293 cells expressing SNAP-GLP-1R, read-out: GLP1R Internalization EC50

| Compound | EC50 (hGIPR [1]; read-out: cAMP Rel EC50, hGIPR) | EC50 (hGLP-1R [2]; [5]) | EC50 (human GcgR; read-out: cAMP Rel EC50, hGcgR) | EC50 (hGIPR [3]; [6]) | EC50 (hGLP-1R [4]; [7]) | EC50 (hGcgR; [8]) | EC50 (human GLP1-R; [9]) | Internalization % TOP (human GLP1-R) | EC50 (hGIPR [1]) | EC50 (hGLP-1R [2]) | EC50 (human GcgR) | EC50 (hGIPR [3]) | EC50 (hGLP-1R [4]) | EC50 (hGcgR) | EC50 (human GLP1-R) |
| --- | --- | --- | --- | --- | --- | --- | --- | --- | --- | --- | --- | --- | --- | --- | --- |
| CC[C@H](C)[C@H](NC(=O)[C@H](Cc1ccccc1)NC(=O)[C@H](C)NC(=O)C(C)(C)NC(=O)[C@H](CCC(N)=O)NC(=O)[C@H](C)NC(=O)[C@H](CCCCNC(=O)COCCOCCNC(=O)CC[C@H](NC(=O)CCCCCCCCCCCCCCCCC(=O)O)C(=O)O)NC(=O)[C@H](CCCCN)NC(=O)[C@H](CC(=O)O)NC(=O)[C@H](CC(C)C)NC(=O)[C@](C)(CC(C)C)NC(=O)[C@H](CCCCN)NC(=O)[C@H](CO)NC(=O)[C@H](Cc1ccccc1)NC(=O)[C@H](CC(=O)O)NC(=O)[C@H](CO)NC(=O)[C@@H](NC(=O)[C@H](Cc1ccccc1)NC(=O)[C@@H](NC(=O)CNC(=O)[C@H](CCC(N)=O)NC(=O)C(C)(C)NC(=O)[C@@H](N)Cc1ccc(O)cc1)[C@@H](C)O)[C@@H](C)O)C(=O)N[C@@H](CCC(=O)O)C(=O)N[C@@H](Cc1ccc(O)cc1)C(=O)N[C@@H](CC(C)C)C(=O)N[C@@H](CC(C)C)C(=O)N[C@@H](C)C(=O)NCC(=O)NCC(=O)N1CCC[C@H]1C(=O)N[C@@H](CO)C(=O)N[C@@H](CO)C(=O)NCC(=O)N[C@@H](CCC(=O)O)C(=O)N1CCC[C@H]1C(=O)N1CCC[C@H]1C(=O)N1CCC[C@H]1C(=O)N[C@@H](CO)C(=O)N[C@@H](CCC(=O)O)C(=O)NCC(N)=O [Example 22] | 81 nM | 592 nM | 532 nM | 0.246 nM | 2.94 nM | 5.42 nM | 41.9 nM | 64.7% | – | – | – | – | – | – | – |
| H-Y[Aib]QGTFTSDYS[Dap][αMeL]LDKK([AEEA-γGlu-C18 diacid])AQ[Aib]AFIEYLLEGGESSGAPPPSGS-NH2 [Example 360] | 78.3 nM | 989 nM | 1470 nM | 0.45 nM | 5.86 nM | 5.28 nM | 214 nM | 66.1% | – | – | – | – | – | – | – |
| H-Y[Aib]QGTFTSDFS[Orn][αMeL]LDKK([γGlu-AEEA-γGlu-C18 diacid])AQ[Aib]AFIEYLLE[Aib]GPSSGAPPPSGT-NH2 [Example 276] | 6.28 nM | 103 nM | 113 nM | 0.0708 nM | 2.61 nM | 2.82 nM | 237 nM | 68.4% | – | – | – | – | – | – | – |
| H-Y[Aib]QGTFTSDFSR[αMeL]LDKK([AEEA-AEEA-γGlu-C18 diacid])AQ[Aib]AFIEYLLE[Aib]GPSSGAPPPSGS-NH2 [Example 80] | – | – | – | – | – | – | – | 48.2% | 10.1 nM | 627 nM | 1190 nM | 0.0593 nM | 2.55 nM | 7.44 nM | 35.8 nM |
| H-Y[Aib]QGTFTSDFS[Orn][αMeL]LDKK([AEEA-γGlu-C18 diacid])AQ[Aib]AFIEWLLEGGSSSGAPPPSGE-NH2 [Example 172] | 29.3 nM | 457 nM | 605 nM | 0.174 nM | 3.5 nM | 3.38 nM | 121 nM | 41.4% | – | – | – | – | – | – | – |
| H-Y[Aib]QGTFTSDFS[Orn][αMeL]LDKK([AEEA-γGlu-C20 diacid])AQ[Aib]AFIEWLLEGGPSSGAPPPSGS-NH2 [Example 78] | 78.4 nM | 560 nM | 2640 nM | 0.228 nM | 1.93 nM | 7.06 nM | 78.2 nM | 55% | – | – | – | – | – | – | – |
| H-Y[Aib]QGTFTSDFSK[αMeL]LDKK([AEEA-γGlu-C20 diacid])AQ[Aib]AFIEYLLAGGPSSGEPPPSSG-NH2 [Example 7] | 50.6 nM | 494 nM | 1210 nM | 0.203 nM | 2.11 nM | 5.05 nM | 52.6 nM | 76.3% | – | – | – | – | – | – | – |
| H-Y[Aib]QGTFTSDYS[Orn][αMeL]LDKK([AEEA-γGlu-C18 diacid])AQ[Aib]AFIEYLLEGGESSGAPPPSGS-NH2 [Example 359] | 103 nM | 826 nM | 957 nM | 0.281 nM | 4.61 nM | 2.1 nM | 49.6 nM | 74.4% | – | – | – | – | – | – | – |
